The data set relates to brain dead adult beagle dogs. Particulars: dog, in vivo. The procedure: Care and Use Committee. Adult beagle dogs (8-10 kg) of either sex (n=11) were initially anesthetized with propofol (10 mg/kg, intravenous or IV). After intubation, anesthesia was maintained with isoflurane at 1-2% on mechanical ventilation with FiO2 at 30%, ventilation rate of 12, which was adjusted as necessary to achieve a PaCO2 goal of 38-42 mmHg. A circulating water-warming pad was used to maintain normothermia throughout the experiment. The femoral artery was cannulated for arterial blood sampling and for measurement of arterial blood pressure and heart rate. The external jugular vein was also accessed and cannulated for administration of fluids and necessary medications.
Explosive brain death was induced in anesthetized adult Beagle dogs by inflating a balloon catheter (16 Fr. Foley) that was placed under the skull from a trephination burr hole. The balloon was inflated from 0-8 ml volume over about 5 minutes. which ultimately causes the brain stem to herniate through the foramen at the base of the skull. This causes rapid brain death that is characterized by the occurrence of a Cushing reflex, a negative apnea reflex, and fixed and dilated pupils. This methodology has previously been described by Mangino, et al.
The animals were assigned to either the control group (n=5) or the PEG-20k group (n=6) within the first hour. Both groups were treated in a standard fashion. […]

Consider polyethylene glycol-20k [PEG-20k], for which the Hb level trend entry was “trended lower”.

The values are drawn from US20250366467A1, “METHODS FOR FLUID RESUSCITATION OF AN ORGAN DONOR” (VIRGINIA COMMONWEALTH UNIVERSITY, priority 2022, published 2025).
